ChEMBL document CHEMBL3044692, “Biological activity of alpha-thujaplicin, the isomer of hinokitiol” (Biol Pharm Bull, 2004)
Values after ≈ are worked out from the molar mass of the structure shown. Active and inactive are the calls of the source. The rule behind the calls is not given here.

Assays:
Reticulitermes speratus [1] = assay: Insecticidal activity against Reticulitermes speratus assessed as mortality at 0.00025 g/m'2 at 48 hr relative to control; assay type: functional
Reticulitermes speratus [2] = assay: Insecticidal activity against Reticulitermes speratus assessed as mortality at 0.00025 g/m'2 at 24 hr relative to control; assay type: functional
Reticulitermes speratus [3] = assay: Insecticidal activity against Reticulitermes speratus at 48 hr; assay type: functional
Reticulitermes speratus [4] = assay: Insecticidal activity against Reticulitermes speratus assessed as mortality at 0.00001 g/m'2 at 24 hr relative to control; assay type: functional
Reticulitermes speratus [5] = assay: Insecticidal activity against Reticulitermes speratus assessed as mortality at 0.00005 g/m'2 at 24 hr relative to control; assay type: functional
Reticulitermes speratus [6] = assay: Insecticidal activity against Reticulitermes speratus assessed as mortality at 0.00005 g/m'2 at 48 hr relative to control; assay type: functional
Reticulitermes speratus [7] = assay: Insecticidal activity against Reticulitermes speratus assessed as mortality at 0.00010 g/m'2 at 48 hr relative to control; assay type: functional
Reticulitermes speratus [8] = assay: Insecticidal activity against Reticulitermes speratus assessed as mortality at 0.00010 g/m'2 at 24 hr relative to control; assay type: functional
Reticulitermes speratus [9] = assay: Insecticidal activity against Reticulitermes speratus assessed as mortality at 0.00050 g/m'2 at 48 hr relative to control; assay type: functional
Reticulitermes speratus [10] = assay: Insecticidal activity against Reticulitermes speratus assessed as mortality at 0.00050 g/m'2 at 24 hr relative to control; assay type: functional
Dermatophagoides farinae [11] = assay: Acaricidal activity against Dermatophagoides farinae assessed as mortality at 0.02 g/m'2 after 24 hr relative to control; assay type: functional
Dermatophagoides farinae [12] = assay: Acaricidal activity against Dermatophagoides farinae assessed as mortality at 0.05 g/m'2 after 24 hr relative to control; assay type: functional
Dermatophagoides farinae [13] = assay: Acaricidal activity against Dermatophagoides farinae assessed as mortality at 0.01 g/m'2 after 24 hr relative to control; assay type: functional
Dermatophagoides farinae [14] = assay: Acaricidal activity against Dermatophagoides farinae assessed as mortality at 0.1 g/m'2 after 24 hr relative to control; assay type: functional
Dermatophagoides farinae [15] = assay: Acaricidal activity against Dermatophagoides farinae assessed as mortality at 1 g/m'2 after 24 hr relative to control; assay type: functional
Reticulitermes speratus [16] = assay: Insecticidal activity against Reticulitermes speratus assessed as mortality at 0.01 g/m'2 at 48 hr relative to control; assay type: functional
Reticulitermes speratus [17] = assay: Insecticidal activity against Reticulitermes speratus assessed as mortality at 0.02 g/m'2 at 48 hr relative to control; assay type: functional
Reticulitermes speratus [18] = assay: Insecticidal activity against Reticulitermes speratus assessed as mortality at 0.01 g/m'2 at 24 hr relative to control; assay type: functional
Reticulitermes speratus [19] = assay: Insecticidal activity against Reticulitermes speratus assessed as mortality at 0.02 g/m'2 at 24 hr relative to control; assay type: functional
Reticulitermes speratus [20] = assay: Insecticidal activity against Reticulitermes speratus assessed as mortality at 0.03 g/m'2 at 48 hr relative to control; assay type: functional
Reticulitermes speratus [21] = assay: Insecticidal activity against Reticulitermes speratus assessed as mortality at 0.03 g/m'2 at 24 hr relative to control; assay type: functional
Reticulitermes speratus [22] = assay: Insecticidal activity against Reticulitermes speratus assessed as mortality at 0.04 g/m'2 at 24 hr relative to control; assay type: functional
Reticulitermes speratus [23] = assay: Insecticidal activity against Reticulitermes speratus assessed as mortality at 0.04 g/m'2 at 48 hr relative to control; assay type: functional
Reticulitermes speratus [24] = assay: Insecticidal activity against Reticulitermes speratus assessed as mortality at 0.05 g/m'2 at 48 hr relative to control; assay type: functional
Reticulitermes speratus [25] = assay: Insecticidal activity against Reticulitermes speratus assessed as mortality at 0.1 g/m'2 at 48 hr relative to control; assay type: functional
Reticulitermes speratus [26] = assay: Insecticidal activity against Reticulitermes speratus assessed as mortality at 0.05 g/m'2 at 24 hr relative to control; assay type: functional
Reticulitermes speratus [27] = assay: Insecticidal activity against Reticulitermes speratus assessed as mortality at 0.1 g/m'2 at 24 hr relative to control; assay type: functional
Legionella pneumophila [28] = assay: Antibacterial activity against Legionella pneumophila SG 3 after 7 days by agar dilution method; assay type: functional; details: SG 3, 168 h
Legionella pneumophila [29] = assay: Antibacterial activity against Legionella pneumophila SG 1 after 7 days by agar dilution method; assay type: functional; details: SG 1, 168 h
[30] = test system: Colletotrichum orbiculare; assay: Antifungal activity against Colletotrichum orbiculare MAFF 306518 after 15 days by agar dilution method; assay type: functional; details: MAFF 306518, 360 h
Colletotrichum lagenaria = assay: Antifungal activity against Colletotrichum lagenaria after 15 days by agar dilution method; assay type: functional; details: 360 h
Phomopsis obscurans = assay: Antifungal activity against Phomopsis obscurans MAFF 744018 after 15 days by agar dilution method; assay type: functional; details: Paraphomopsis obscurans, MAFF 744018, 360 h
Botrytis cinerea = assay: Antifungal activity against Botryotinia fuckeliana IFO 30915 after 15 days by agar dilution method; assay type: functional; details: IFO 30915, 360 h
Fusarium solani = assay: Antifungal activity against Fusarium solani IFO 9955 after 15 days by agar dilution method; assay type: functional; details: IFO 9955, 360 h
Pythium aphanidermatum = assay: Antifungal activity against Pythium aphanidermatum IFO 32440 after 15 days by agar dilution method; assay type: functional; details: IFO 32440, 360 h
Thanatephorus cucumeris = assay: Antifungal activity against Thanatephorus cucumeris IFO 30455 after 15 days by agar dilution method; assay type: functional; details: IFO 30455, 360 h
[31] = Cytotoxicity against Homo sapiens (human) KATO III; assay type: functional
HL-60 = assay: Cytotoxicity against Homo sapiens (human) HL60; assay type: functional, cell-based
K562 = assay: Cytotoxicity against Homo sapiens (human) K562; assay type: functional, cell-based
[32] = Cytotoxicity against Mus musculus (mouse) RL male 1; assay type: functional
[33] = Cytotoxicity against Mus musculus (mouse) MH134; assay type: functional
MDCK = assay: Cytotoxicity against MDCK cells; assay type: functional; details: Canis lupus familiaris
Colon 26 = assay: Cytotoxicity against Mus musculus (mouse) colon 26 cells; assay type: functional
P388 [34] = assay: Growth inhibition of Mus musculus (mouse) P388 cells at 0.63 ug/ml after 24 hr by MTT assay; assay type: functional; details: P388, 24 h, read-out: GI
Tyrophagus putrescentiae = assay: Acaricidal activity against Tyrophagus putrescentiae at high concentration; assay type: functional, organism-based
Dermatophagoides farinae [35] = assay: Acaricidal activity against Dermatophagoides farinae after 24 hr; assay type: functional
Dermatophagoides farinae [36] = assay: Acaricidal activity against Dermatophagoides farinae assessed as mortality at 0.5 g/m'2 after 24 hr relative to control; assay type: functional
[37] = Toxicity against ip dosed Mus musculus Slc:ddY (mouse) after 8 days; assay type: organism-based; details: in vivo
P388 [38] = assay: Growth inhibition of Mus musculus (mouse) P388 cells at >1.25 ug/ml after 48 hr by MTT assay; assay type: functional
P388 [39] = assay: Growth inhibition of Mus musculus (mouse) P388 cells at 0.63 ug/ml after 48 hr by MTT assay; assay type: functional; details: P388, 48 h, read-out: GI
P388 [40] = assay: Growth inhibition of Mus musculus (mouse) P388 cells at >1.25 ug/ml after 24 hr by MTT assay; assay type: functional
P388 [41] = assay: Growth inhibition of Mus musculus (mouse) P388 cells after 24 to 48 hr by MTT assay; assay type: functional, cell-based
Dermatophagoides farinae [42] = assay: Acaricidal activity against Dermatophagoides farinae assessed as mortality at 0.2 g/m'2 after 24 hr relative to control; assay type: functional

SMILES: CCOP(=S)(OCC)Oc1nc(Cl)c(Cl)cc1Cl [CHLORPYRIFOS]
- mortality (Reticulitermes speratus [1]): 100%
- mortality (Reticulitermes speratus [2]): 60%
- LC50 (Reticulitermes speratus [3]): 0.00016 g/m2
- mortality (Reticulitermes speratus [4]): 0%
- mortality (Reticulitermes speratus [5]): 10%
- mortality (Reticulitermes speratus [6]): 40%
- mortality (Reticulitermes speratus [7]): 75%
- mortality (Reticulitermes speratus [8]): 25%
- mortality (Reticulitermes speratus [9]): 100%
- mortality (Reticulitermes speratus [10]): 100%

SMILES: CC(C)c1cccc(=O)c(O)c1 [HINOKITIOL]
- LC50 (Reticulitermes speratus [3]): 0.03 g/m2
- mortality (Dermatophagoides farinae [11]): 2.6%
- mortality (Dermatophagoides farinae [12]): 11.9%
- mortality (Dermatophagoides farinae [13]): 0%
- mortality (Dermatophagoides farinae [14]): 99%
- mortality (Dermatophagoides farinae [15]): 100%
- mortality (Reticulitermes speratus [16]): 0%
- mortality (Reticulitermes speratus [17]): 0%
- mortality (Reticulitermes speratus [18]): 0%
- mortality (Reticulitermes speratus [19]): 0%
- mortality (Reticulitermes speratus [20]): 100%
- mortality (Reticulitermes speratus [21]): 13.3%
- mortality (Reticulitermes speratus [22]): 100%
- mortality (Reticulitermes speratus [23]): 100%
- mortality (Reticulitermes speratus [24]): 100%
- mortality (Reticulitermes speratus [25]): 100%
- mortality (Reticulitermes speratus [26]): 100%
- mortality (Reticulitermes speratus [27]): 100%
- MIC (Legionella pneumophila [28]): 25 µg/mL (≈ 152 µM)
- MIC (Legionella pneumophila [29]): 6.25 µg/mL (≈ 38.1 µM)
- MIC [30]: 25 µg/mL (≈ 152 µM)
- MIC (Colletotrichum lagenaria): 25 µg/mL (≈ 152 µM)
- MIC (Phomopsis obscurans): 12 µg/mL (≈ 73.1 µM)
- MIC (Botrytis cinerea): 50 µg/mL (≈ 304 µM)
- MIC (Fusarium solani): 50 µg/mL (≈ 304 µM)
- MIC (Pythium aphanidermatum): 12 µg/mL (≈ 73.1 µM)
- MIC (Thanatephorus cucumeris): 12 µg/mL (≈ 73.1 µM)
- IC50 [31]: 0.3 µg/mL (≈ 1.83 µM)
- IC50 (HL-60): 0.3 µg/mL (≈ 1.83 µM)
- IC50 (K562): 0.3 µg/mL (≈ 1.83 µM)
- IC50 [32]: 0.3 µg/mL (≈ 1.83 µM)
- IC50 [33]: 0.3 µg/mL (≈ 1.83 µM)
- MIC (MDCK): 10 µg/mL (≈ 60.9 µM)
- MIC (Colon 26): 10 µg/mL (≈ 60.9 µM)

SMILES: CC[C@]1(O)C[C@@H]2CN(CCc3c([nH]c4ccccc34)[C@@](C(=O)OC)(c3cc4c(cc3OC)N(C)[C@H]3[C@@](O)(C(=O)OC)[C@H](OC(C)=O)[C@]5(CC)C=CCN6CC[C@]43[C@@H]65)C2)C1 [VINBLASTINE]
- inhibition of growth at 0.63 µg/mL (P388 [34]): 84%

SMILES: O=c1cccccc1O [TROPOLONE]
- IC50 [31]: 0.3 µg/mL (≈ 2.46 µM)
- IC50 (HL-60): 0.3 µg/mL (≈ 2.46 µM)
- IC50 (K562): 0.3 µg/mL (≈ 2.46 µM)
- IC50 [32]: 0.3 µg/mL (≈ 2.46 µM)
- IC50 [33]: 0.3 µg/mL (≈ 2.46 µM)

SMILES: CC(C)c1ccccc(=O)c1O [ALPHA-THUJAPLICIN]
- Activity (Tyrophagus putrescentiae): inactive
- LC50 (Dermatophagoides farinae [35]): 0.66 g/m2
- LC50 (Reticulitermes speratus [3]): 0.02 g/m2
- mortality (Dermatophagoides farinae [13]): 1.1%
- mortality (Dermatophagoides farinae [14]): 0%
- mortality (Dermatophagoides farinae [36]): 38.4%
- mortality (Dermatophagoides farinae [15]): 69.5%
- mortality (Reticulitermes speratus [16]): 0%
- mortality (Reticulitermes speratus [17]): 0%
- mortality (Reticulitermes speratus [18]): 0%
- mortality (Reticulitermes speratus [19]): 0%
- mortality (Reticulitermes speratus [20]): 100%
- mortality (Reticulitermes speratus [21]): 0%
- mortality (Reticulitermes speratus [22]): 13.3%
- mortality (Reticulitermes speratus [23]): 100%
- mortality (Reticulitermes speratus [24]): 100%
- mortality (Reticulitermes speratus [25]): 100%
- mortality (Reticulitermes speratus [26]): 93.3%
- mortality (Reticulitermes speratus [27]): 100%
- MIC (Legionella pneumophila [28]): 50 µg/mL (≈ 304 µM)
- MIC (Legionella pneumophila [29]): 12.5 µg/mL (≈ 76.1 µM)
- MIC [30]: 12 µg/mL (≈ 73.1 µM)
- MIC (Colletotrichum lagenaria): 12 µg/mL (≈ 73.1 µM)
- MIC (Phomopsis obscurans): 12 µg/mL (≈ 73.1 µM)
- MIC (Botrytis cinerea): 25 µg/mL (≈ 152 µM)
- MIC (Fusarium solani): 50 µg/mL (≈ 304 µM)
- MIC (Pythium aphanidermatum): 12 µg/mL (≈ 73.1 µM)
- MIC (Thanatephorus cucumeris): 12 µg/mL (≈ 73.1 µM)
- LD50 at 192 h [37]: 256 mg/kg
- growth inhibition (GI) (P388 [38]): 100%
- inhibition of growth at 0.63 µg/mL (P388 [39]): 68%
- inhibition of growth at 0.63 µg/mL (P388 [34]): 78%
- growth inhibition (GI) (P388 [40]): 98%
- growth inhibition (GI) (P388 [41]): Dose-dependent effect

SMILES: CCN(CC)C(=O)c1cccc(C)c1 [DIETHYLTOLUAMIDE]
- LC50 (Dermatophagoides farinae [35]): 0.79 g/m2
- mortality (Dermatophagoides farinae [42]): 7.2%
- mortality (Dermatophagoides farinae [14]): 0%
- mortality (Dermatophagoides farinae [36]): 20.5%
- mortality (Dermatophagoides farinae [15]): 45.5%
